Experiments:
Assay type in all cases: cell-based, human
[1] = test system: RT112 bladder carcinoma cells; assay: MTS viability of RT112 cells: chemotherapy- and anti-CD95-induced apoptosis; conditions: RT112 without IL-4; 50 ng/ml camptothecin or 7 μM etoposide
Description: Anticancer treatment using cytotoxic drugs mediates cell death by activating the intracellular apoptotic program. To determine whether IL-4 was able to inhibit apoptosis induced by chemotherapeutic drugs, bladder tumor cells (RT112) were pretreated for two days with different concentrations of IL-4 and subsequently exposed to camptothecin or etoposide.
Human LNCAP prostate cancer cell line and human MDA-MB-231 breast cancer cell line were obtained from the American Type Culture Collection (ATCC, Manassas, Va.). Human RT112 bladder carcinoma cell line was kindly provided by Dr. M. Cippitelli (Regina Elena Cancer Institute, Rome, Italy). Cells were grown in RPMI 1640 (Life Technologies Inc., Grand Island, N.Y.) containing 10% heat inactivated fetal bovine serum supplemented with L-Glutamine 2 mM and 100 units/ml Penicillin-Streptomycin. Cells were kept in 5% CO2 atmosphere and routinely passaged when 80-85% confluent. […] Camptothecin, cisplatin, daunorubicine, etoposide and vincristine were purchased from Sigma-Aldrich Inc. (Sain Louis, Mo.) and resuspended in DMSO (cisplatin, camptothecin and etoposide) or in H2O (daunorubicine and vincristine). Anti-CD95 agonistic antibody (clone CH11) was purchased from Upstate Biotechnology (Lake Placid, N.Y.). Monoclonal antibody anti-Bcl-XL (H5, mouse) was from Santa Cruz (Santa Cruz, Calif.), antibody anti-cFlip/FLAME-1 (NF6, mouse) was kindly provided by Dr. P.H. Krammer (German Cancer Reseach Center, Heidelberg, Germany). Antibody anti β-actin (goat) was purchased from Oncogene (Boston, Mass.):
Cell viability was determined using the CellTiter 96® AQueous One Solution Cell Proliferation Assay (Promega, Madison, Wis.), according to the manufacturer's instructions. The assay is based on reduction of 3-(4,5-dimethylthiazol-2-yl)-5-(3-carboxymethoxyphenyl)-2-(4-sulfophenyl)-2H-tetrazolium, inner salt (MTS) to a colored formazan product that is measured spectrophotometrically. Cells were seeded in 96-well tissue culture plates and incubated at 37° C. in a 5% CO2 incubator overnight. […] After two days cells were treated for 10 hours with chemotherapeutic drugs or anti-CD95, then 20 μl of MTS were added to each well. After 3 hours of incubation at 37° C. with the MTS reagent, the plates were read on a Multilabel Counter (Victor2, Wallac, Perkin-Ehmer Inc., Norwalk, Conn.) and dye absorbance was measured at 490 nm.
The percentage of apoptotic cells was derived from the percentage of viable cells that was directly calculated from the values of the MTS assay. The percentage of protection from apoptosis was determined as: % protection=100%−X
X was calculated with the formule: (C1−C2):100=(S1−S2):X where:
C1 is the viability of untreated control cells, C2 is the viability of control cells treated with the apoptotic stimulus, S1 and S2 are the viability of cells preincubated with cytoldnes or transduced with anti-apoptotic genes, untreated (S1) or treated (S2) with the apoptotic stimuli.
(A) Percentage of viable RT112 bladder carcinoma cells pre-treated for two days with increasing doses of IL-4 (5, 10, 20, 50 and 100 ng/ml) which were maintained also during incubation with chemotherapeutic drugs and exposed to 50 ng/ml camptothecin of 7 μM etoposide. […] Cell viability was determined after 24 hours using the MTS assay as described in Materials and Methods and the percentage of protection from cell death was calculated as described in Materials and Methods. The results shown are the mean ±s.d. of four independent experiments.
When the cytokine is removed by washing the percentage of protection is downmodulated.
(E) IL-4 prevents anti CD95-induced apoptosis. […] Successively, cells were incubated with 30 ng/ml anti-CD95 agonistic antibody in standard medium, Control cells (−) were stimulated with anti-CD95 in the absence of cytokine pre-treatment. The results shown are the mean ±s.d. of four independent experiments.

[2] = test system: primary neoplastic cells derived from all the histological variants of thyroid epithelial carcinomas (PTC, FTC, UTC); assay: Chemotherapy-induced cell death in freshly purified thyroid carcinoma cells compared with normal thyrocytes; conditions: cisplatin 300 ng/ml, doxorubicin 5 μM, taxol 5 μM, 6, 12 and 24 h
Experimental: Such resistance persisted for some days and was generally lost after eight to ten days of in vitro culture (results not shown).
(§1) Thyroid cell purification and culture. Thyroid tissues from normal, PTC, FTC and UTC were digested for 2 hours with collagenase (1.5 mg/ml) (Gibco BRL, Grand Island, N.Y.) and hyaluronidase (20 μg/ml) (Sigma Chemical Co., St. Louis, Mo.) in DMEM. Thyrocytes were purified from the digested tissues by hematopoietic cell depletion with anti-CD45-coupled beads (Dynal, Wirral Merseyside, U.K.) and 12 hours of flask adherence, which allowed removal of other cells. After additional 12 hours of culture, thyroid cells were allowed to grow in monolayer for the immunocytochemistry or detached with trypsin+EDTA following exposure to cytokines or chemotherapeutic agents for functional and protein analyses. Thyrocytes were cultured in standard DMEM with 10% heat-inactivated FBS (Hyclone Laboratories, Logan, UK) in the presence or absence of human recombinant IL-4 (20 ng/ml), IL-10 (40 ng/ml) or IFN-γ (1000 IU/ml) (uroclone, Paignton, UK) and cisplatin (300 ng/ml), doxorubicin (5 μM) and taxol (5 μM) (Sigma) or TRAIL (Alexis, San Diego, USA). For the IL-4 and IL-10 neutralization, thyroid cancer cells were pretreated, for 48 hours, with anti-human IL-4 and IL-10 neutralizing antibodies (1 μg/ml) (R&D systems, MN, USA).
Cell death quantitation. Apoptotic events of neoplastic thyrocytes were evaluated by DNA staining and flow cytometry analysis. Thyroid cell pellets were resuspended in hypotonic fluoroclrome solution containing propidium iodide (50 μg/ml), in 0.1% sodium citrate and 0.1% Triton X-100. The percentage of hypodiploid nuclei was evaluated as previously described. Alternatively, freshly purified thyrocytes were plated in 96-bottomed plates in triplicate at 15,000 cells/well and cultured. The number of viable cells was detected by CellTiter Aqueous Assay Kit (Promega Corporation, WI, USA) adding 20 μl of solution reagent directly to culture wells, incubating for 1 hours at 37° C. and recording absorbance at 490 nm.
FIG. 1. […]

[3] = test system: Bcl-xL and Bcl-2 in normal thyrocytes; assay: Immunoblot of Bcl-xL and Bcl-2 in normal thyrocytes cultured with cytokines; conditions: after 48 hours of culture; IL-4 20 ng/ml, IL-10 40 ng/ml, IFN-γ 1000 IU/ml
Experimental: as §1
Protein isolation and Western Blotting. Cell pellets were resuspended in ice-cold NP-40 lysis buffer (50 mM Tris-HCl, pH 7.5, 150 mM NaCl, 1 mM EGTA, 1% NP-40) containing 1 mM PMSF, leupeptin (1 μg/ml), pepstatin (1 μg/ml) and aprotirni (1 μg/ml). Each lysate (30 μg) was fractioned on 12% SDS-polyacrylamide gels and blotted to nitrocellulose (Hybond, Amersham, Little Chalfont Buckinghamshire England, UK). Membrane was blocked for 1 h with nonfat dry milk in TBS containing 0.05% Tween 20 and successively incubated for 2 h with Abs specific to actin (Ab-1, mouse IgM, Calbiochem, Darmstadt, Germany), Bcl-2 (124, mouse IgG1, Upstate Biotechnology Inc.), Bcl-xL (H-5, mouse IgGl, Santa Cniz Biotechnology), IL-4 (3007.11, mouse IgG1, R&D Systems, Inc., Minneapolis, USA), IL-10 (23738.111, mouse IgG2b, R&D Systems), IFN-γ (25718.111, mouse IgG2a, R&D Systems). […]

normal thyrocytes = assay: Cytokine protection of normal thyrocytes from chemotherapy-induced apoptosis; conditions: 48 h pre-treatment, rhIL-4 20 ng/ml or rhIL-10 40 ng/ml, then drugs for 12 h
Experimental: Thyroid cell purification and culture. Thyroid tissues from normal, PTC, FTC and UTC were digested for 2 hours with collagenase (1.5 mg/ml) (Gibco BRL, Grand Island, N.Y.) and hyaluronidase (20 μg/ml) (Sigma Chemical Co., St. Louis, Mo.) in DMEM. Thyrocytes were purified from the digested tissues by hematopoietic cell depletion with anti-CD45-coupled beads (Dynal, Wirral Merseyside, U.K.) and 12 hours of flask adherence, which allowed removal of other cells. After additional 12 hours of culture, thyroid cells were allowed to grow in monolayer for the immunocytochemistry or detached with trypsin+EDTA following exposure to cytokines or chemotherapeutic agents for functional and protein analyses. […]
Cell death quantitation. Apoptotic events of neoplastic thyrocytes were evaluated by DNA staining and flow cytometry analysis. […] The percentage of hypodiploid nuclei was evaluated as previously described. […] The number of viable cells was detected by CellTiter Aqueous Assay Kit (Promega Corporation, WI, USA) adding 20 μl of solution reagent directly to culture wells, incubating for 1 hours at 37° C. and recording absorbance at 490 nm. […]

## CC[C@@]1(O)C(=O)OCc2c1cc1n(c2=O)Cc2cc3ccccc3nc2-1 [camptothecin, reference compound]
[1]
  tumor cells undergoing apoptosis in response to chemotherapeutic agents: ~60%

## N.N.[Cl][Pt][Cl] [cisplatin]
[2]
  sensitivity of primary neoplastic thyroid cells to chemotherapeutic drugs (viability/apoptosis): considerable resistance

## COc1cccc2c1C(=O)c1c(O)c3c(c(O)c1C2=O)C[C@@](O)(C(=O)CO)C[C@@H]3O[C@H]1C[C@H](N)[C@H](O)[C@H](C)O1 [doxorubicin]
[2]
  sensitivity of primary neoplastic thyroid cells to chemotherapeutic drugs (viability/apoptosis): considerable resistance

## COc1cc([C@@H]2c3cc4c(cc3[C@@H](O[C@@H]3O[C@@H]5CO[C@@H](C)O[C@H]5[C@H](O)[C@H]3O)[C@H]3COC(=O)[C@H]23)OCO4)cc(OC)c1O [etoposide, reference compound]
[1]
  tumor cells undergoing apoptosis in response to chemotherapeutic agents: ~60%

## CC(=O)O[C@H]1C(=O)[C@@]2(C)[C@H]([C@H](OC(=O)c3ccccc3)[C@]3(O)C[C@H](OC(=O)[C@H](O)[C@@H](NC(=O)c4ccccc4)c4ccccc4)C(C)=C1C3(C)C)[C@]1(OC(C)=O)CO[C@@H]1C[C@@H]2O [taxol]
[2]
  sensitivity of primary neoplastic thyroid cells to chemotherapeutic drugs (viability/apoptosis): considerable resistance

B1: IFN-γ: human recombinant IFN-γ (protein, UniProt P01579 24-161, looked up)
Interferon gamma: QDPYVKEAENLKKYFNAGHSDVADNGTLFLGILKNWKEESDRKIMQSQIVSFYFKLFKNFKDDQSIQKSVETIKEDMNVKFFNSNKKKRDDFEKLTNYSVTDLNVQRKAIHELIQVMAELSPAAKTGKRKRSQMLFRG
[3]
  Bcl-xL and Bcl-2 expression in normal thyrocytes: not effective

B2: IL-10: human recombinant IL-10 (protein, UniProt P22301 19-178, looked up)
Interleukin-10: SPGQGTQSENSCTHFPGNLPNMLRDLRDAFSRVKTFFQMKDQLDNLLLKESLLEDFKGYLGCQALSEMIQFYLEEVMPQAENQDPDIKAHVNSLGENLKTLRLRLRRCHRFLPCENKSKAVEQVKNAFNKLQEKGIYKAMSEFDIFINYIEAYMTMKIRN
Normal thyrocytes
  prevention of death of normal thyrocytes exposed to cisplatinum, doxorubicin and taxol: drastically prevented death
[3]
  Bcl-xL and Bcl-2 expression in normal thyrocytes: upregulated

Source: US7645449B2, “Sensitizing cells for apoptosis by selectively blocking cytokines” (priority 2003, dated 2010)
